“And” between values parts separate entries of the source, which are not always exact repeats. Equal values may be shown once.
What was measured:
PfCRT variant R374A = assay: CQ uptake assay, oocytes expressing R374A; assay type: cell-based, Plasmodium falciparum
Protocol: (§1) Site-directed mutagenesis of PfCRT^Dd2 was performed as described using the megaprimer method with overlap extension[21],[54]. The primer pairs used are listed in Supplementary Table 6. Please note that a codon-optimized and oocyte-adapted version of PfCRT^Dd2 was used[22] (Supplementary Fig. 16). The resulting DNA fragment was cloned into the SP64T expression vector and verified by sequencing.
(§2) Oocytes were obtained as described previously. Briefly, adult (>2 years old) female X. laevis frogs (NASCO) were anesthetized in a cooled solution of ethyl 3-amino benzoate methanesulfonate (0.1%, w/v), followed by a surgical removal of parts of the ovary. The ovary lobes were carefully dissected and small pieces of oocytes were incubated in Ca^2+-free ND96 buffer (96 mM NaCl, 2 mM KCl, 1 mM MgCl2 buffered with 5 mM HEPES/NaOH, pH 7.5) supplemented with collagenase D (0.1%, w/v; Roche), BSA (0.5%, w/v), and 9 mm Na2HPO4 at 18 °C for 14-16 h while gentle shaking. After incubation, the oocytes were carefully washed several times with ND96 buffer (96 mM NaCl, 2 mM KCl, 1.8 mM CaCl2, 1 mM MgCl2 buffered with 5 mM HEPES/NaOH, pH 7.5) supplemented with 100 mg l^−1 gentamycin). Defolliculated and healthy-looking stage V-VI oocytes were manually selected for RNA microinjection. The RNA was generated as following: The codon-optimized sequences of PfCRT variants were cloned into the pSP64T expression vector. After vector linearization using the restriction endonucleases BamHI or SalI (New England Biolabs), transcription was performed using the in vitro SP6 mMessage mMachine Kit (Ambion)[34]. The obtained RNA was kept at −80 °C and diluted with nuclease-free water to a concentration of 0.6 μg μl^−1. […]
(§3) Drug uptake assays were performed as described previously[21],[22],[24],[34]. […] The radioactivity of each sample was measured using a liquid scintillation analyzer Tri-Carb 4910 TR (PerkinElmer). Oocytes that were injected with water instead of RNA were analyzed in parallel, representing the uptake of a drug by diffusion and/or endogenous permeation pathways. […]

PfCRT variant E207M = assay: CQ uptake assay, oocytes expressing E207M; assay type: cell-based, Plasmodium falciparum
Protocol: as §1
(§4) Oocytes were obtained as described previously. Briefly, adult (>2 years old) female X. laevis frogs (NASCO) were anesthetized in a cooled solution of ethyl 3-amino benzoate methanesulfonate (0.1%, w/v), followed by a surgical removal of parts of the ovary. The ovary lobes were carefully dissected and small pieces of oocytes were incubated in Ca^2+-free ND96 buffer (96 mM NaCl, 2 mM KCl, 1 mM MgCl2 buffered with 5 mM HEPES/NaOH, pH 7.5) supplemented with collagenase D (0.1%, w/v; Roche), BSA (0.5%, w/v), and 9 mm Na2HPO4 at 18 °C for 14-16 h while gentle shaking. After incubation, the oocytes were carefully washed several times with ND96 buffer (96 mM NaCl, 2 mM KCl, 1.8 mM CaCl2, 1 mM MgCl2 buffered with 5 mM HEPES/NaOH, pH 7.5) supplemented with 100 mg l^−1 gentamycin). Defolliculated and healthy-looking stage V-VI oocytes were manually selected for RNA microinjection. The RNA was generated as following: The codon-optimized sequences of PfCRT variants were cloned into the pSP64T expression vector. After vector linearization using the restriction endonucleases BamHI or SalI (New England Biolabs), transcription was performed using the in vitro SP6 mMessage mMachine Kit (Ambion)[34]. The obtained RNA was kept at −80 °C and diluted with nuclease-free water to a concentration of 0.6 μg μl^−1. Precision-bore glass capillary tubes (3.5-inch glass capillaries; Drummond Scientific Co.) were pulled on a vertical puller (P-87 Flaming/Brown micropipette puller, Sutter Instrument Co.), graduated, and placed on a microinjector (Nanoject II Auto-Nanoliter Injector, Drummond Scientific Co.). 50 nl of nuclease-free water alone (control oocytes) or 50 nl of 0.6 μg μl^−1 RNA were injected under stereomicroscopic control. Injected oocytes were incubated for 46–72 h at 18 °C with twice-daily buffer changes before usage in experiments.
(§5) Drug uptake assays were performed as described previously[21],[22],[24],[34]. […] The direction of radio-labeled drug transport is here from the mostly acidic extracellular solution (pH 4.5 or 6.0, as indicated) into the oocyte cytosol (pH ∼ 7.2), which corresponds to the efflux of drug from the acidic digestive vacuole (pH 5.2) into the parasite cytoplasm (pH 7.2). The topology of PfCRT in the oolemma is such that both the N- and C-terminus face the extracellular milieu[3],[22]. In the parasite, the N- and C-terminus face the lumen of the digestive vacuole. CQ uptake kinetics were performed by incubating oocytes in ND96 buffer adjusted to a pH of 4.5, 5.0, 5.5, or 6.0 and supplemented with 50 nM [^3H]CQ and one of 7 different CQ concentrations (10 µM, 50 µM, 100 µM, 200 µM, 300 µM, 400 µM, 500 µM CQ). The reaction was stopped at the 60 min time point, which is in the linear uptake range[22],[34] (Supplementary Fig. 17). For determination of the amount of drug uptake for each oocyte, the reaction medium was removed and the oocytes were washed three times with 2 ml of ice-cold ND96 buffer. Each oocyte was individually transferred to a scintillation vial containing 5% sodium dodecyl sulfate (200 μl) for lysis. The radioactivity of each sample was measured using a liquid scintillation analyzer Tri-Carb 4910 TR (PerkinElmer). Oocytes that were injected with water instead of RNA were analyzed in parallel, representing the uptake of a drug by diffusion and/or endogenous permeation pathways. The resulting value represents the “background“ level of drug accumulation in oocytes (in-depth discussion in[22]). […]

PfCRT variant E95A = molecular target: T1, PfCRT variant E95A (Plasmodium falciparum, UniProt Q9N623, A220S/E95A/I356T/K76T/M74I/N326S/N75E/Q271E/R371I); assay: CQ uptake assay, oocytes expressing E95A; assay type: cell-based
T1 sequence (Q9N623 1-424 M74I/N75E/K76T/E95A/A220S/Q271E/N326S/I356T/R371I): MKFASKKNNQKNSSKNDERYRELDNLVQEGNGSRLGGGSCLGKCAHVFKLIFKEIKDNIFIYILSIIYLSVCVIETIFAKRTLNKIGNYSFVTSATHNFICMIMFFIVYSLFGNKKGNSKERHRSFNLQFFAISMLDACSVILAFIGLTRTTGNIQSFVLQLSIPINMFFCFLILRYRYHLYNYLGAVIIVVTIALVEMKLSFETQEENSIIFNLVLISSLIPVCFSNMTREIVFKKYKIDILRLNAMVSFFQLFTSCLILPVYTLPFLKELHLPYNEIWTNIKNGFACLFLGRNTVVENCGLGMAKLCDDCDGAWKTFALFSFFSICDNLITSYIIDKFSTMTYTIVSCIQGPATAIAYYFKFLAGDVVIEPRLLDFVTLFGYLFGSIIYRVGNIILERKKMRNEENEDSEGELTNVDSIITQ
Protocol: as §1, §2, §3

PfCRT variant D313A = assay: CQ uptake assay, oocytes expressing D313A; assay type: cell-based, Plasmodium falciparum
Protocol: as §1, §4, §5

PfCRT variant E207N = assay: CQ uptake assay, oocytes expressing E207N; assay type: cell-based, Plasmodium falciparum
Protocol: as §1, §4, §5

PfCRT variant E207S = assay: CQ uptake assay, oocytes expressing E207S; assay type: cell-based, Plasmodium falciparum
Protocol: as §1, §4, §5

[1] = CQ transport at pH 4.5 / pH 6.0
[2] = E207M, 50 µM CQ, 1 h, mean ± SEM
[3] = pH 4.5, individual replicates, Fig 6b
[4] = pH 6.0, individual replicates, Fig 6b
[5] = ratio of activity pH 4.5 / pH 6.0
[6] = D313A, 50 µM CQ, 1 h, mean ± SEM
[7] = E207N, 50 µM CQ, 1 h, mean ± SEM
[8] = E207S, 50 µM CQ, 1 h, mean ± SEM

CCN(CC)CCCC(C)Nc1ccnc2cc(Cl)ccc12 (stereo not drawn) [CQ, chloroquine]
Activity at pH 4.5 (PfCRT variant R374A; 50 µM CQ, 1 h, mean ± SEM): 0.90 ± 0.14 pmol h-1 oocyte-1 | Activity at pH 6.0 (PfCRT variant R374A; 50 µM CQ, 1 h, mean ± SEM): 3.81 ± 0.61 pmol h-1 oocyte-1 | R-value (PfCRT variant R374A; [1]): 0.23 ± 0.03 | Activity at pH 4.5 (PfCRT variant E207M; [2]): 1.85 ± 0.27 pmol h-1 oocyte-1 | Activity at pH 6.0 (PfCRT variant E207M; [2]): 2.24 ± 0.41 pmol h-1 oocyte-1 | R-value (PfCRT variant E207M; E207M, CQ transport at pH 4.5 / pH 6.0): 0.85 ± 0.02 | E207M transport activity pH 4.5 (PfCRT variant E207M; [3]): 1.39 pmol oocyte-1 h-1 and 1.26 pmol oocyte-1 h-1 and 2.26 pmol oocyte-1 h-1 and 2.48 pmol oocyte-1 h-1 | E207M transport activity pH 6.0 (PfCRT variant E207M; [4]): 1.61 pmol oocyte-1 h-1 and 1.40 pmol oocyte-1 h-1 and 2.48 pmol oocyte-1 h-1 and 3.48 pmol oocyte-1 h-1 | E207M R-value (PfCRT variant E207M; [5]): 0.86 and 0.90 and 0.91 and 0.71 | Activity at pH 4.5 (PfCRT variant E95A; 50 µM CQ, 1 h, mean ± SEM): 1.21 ± 0.20 pmol h-1 oocyte-1 | Activity at pH 6.0 (PfCRT variant E95A; 50 µM CQ, 1 h, mean ± SEM): 2.74 ± 0.74 pmol h-1 oocyte-1 | R-value (PfCRT variant E95A; [1]): 0.41 ± 0.11 | Activity at pH 4.5 (PfCRT variant D313A; [6]): 1.49 ± 0.21 pmol h-1 oocyte-1 | Activity at pH 6.0 (PfCRT variant D313A; [6]): 4.55 ± 0.45 pmol h-1 oocyte-1 | R-value (PfCRT variant D313A; D313A, CQ transport at pH 4.5 / pH 6.0): 0.33 ± 0.04 | D313A transport activity pH 4.5 (PfCRT variant D313A; pH 4.5, single replicates, Fig 1d left): 2.00 pmol oocyte-1 h-1 and 1.13 pmol oocyte-1 h-1 and 1.34 pmol oocyte-1 h-1 | D313A R-value (PfCRT variant D313A; pH 4.5 vs pH 6.0, Fig 1d left): 0.38 and 0.23 and 0.39 | D313A transport activity pH 6.0 (PfCRT variant D313A; pH 6.0, single replicates, Fig 1d left): 5.27 pmol oocyte-1 h-1 and 4.91 pmol oocyte-1 h-1 and 3.47 pmol oocyte-1 h-1 | Activity at pH 4.5 (PfCRT variant E207N; [7]): 2.54 ± 0.34 pmol h-1 oocyte-1 | Activity at pH 6.0 (PfCRT variant E207N; [7]): 2.81 ± 0.43 pmol h-1 oocyte-1 | R-value (PfCRT variant E207N; E207N, CQ transport at pH 4.5 / pH 6.0): 0.93 ± 0.07 | E207N transport activity pH 4.5 (PfCRT variant E207N; [3]): 3.35 pmol oocyte-1 h-1 and 2.62 pmol oocyte-1 h-1 and 1.45 pmol oocyte-1 h-1 and 2.72 pmol oocyte-1 h-1 | E207N transport activity pH 6.0 (PfCRT variant E207N; [4]): 3.09 pmol oocyte-1 h-1 and 3.00 pmol oocyte-1 h-1 and 1.41 pmol oocyte-1 h-1 and 3.72 pmol oocyte-1 h-1 | E207NR-value (PfCRT variant E207N; [5]): 1.08 and 0.87 and 1.03 and 0.73 | Activity at pH 4.5 (PfCRT variant E207S; [8]): 2.94 ± 0.21 pmol h-1 oocyte-1 | Activity at pH 6.0 (PfCRT variant E207S; [8]): 3.07 ± 0.23 pmol h-1 oocyte-1 | R-value (PfCRT variant E207S; E207S, CQ transport at pH 4.5 / pH 6.0): 0.96 ± 0.01 | E207S transport activity pH 4.5 (PfCRT variant E207S; [3]): 3.45 pmol oocyte-1 h-1 and 2.79 pmol oocyte-1 h-1 and 2.59 pmol oocyte-1 h-1 | E207S transport activity pH 6.0 (PfCRT variant E207S; [4]): 3.59 pmol oocyte-1 h-1 and 2.98 pmol oocyte-1 h-1 and 2.63 pmol oocyte-1 h-1 | E207S R-value (PfCRT variant E207S; [5]): 0.96 and 0.94 and 0.98

From publication PMC10349806 (Nature Communications, 2023)
